Source: patent publication US9844535B2, “SHP2 inhibitors and methods of treating autoimmune and/or glomerulonephritis-associated diseases using SHP2 inhibitors” (Indiana University Research and Technology Corporation, priority 2013, dated 2017)

What was measured:
[1] = system: human T cells isolated from SLE patients; assay: Cultured human SLE T cells: IFNγ secretion, proliferation, viability; format: cell-based
Source text: All SLE human cells in the following Examples were isolated from SLE patients diagnosed according to the American College of Rheumatology classification criteria and recruited from the Division of Rheumatology at Beth Israel Deaconess Medical Center, Boston, Mass. under IRB protocol 2006-P-0298. Healthy gender- and age-matched control cells were also used for the Examples herein. Briefly, peripheral venous blood was collected in heparin-lithium tubes and peripheral blood mononuclear cells were prepared with ficoll-Paque centrifugation, as previously described in Grammatikos et al., Clin Immunol. 2014; 150: 192-200.
Human T cells were purified from frozen peripheral blood mononuclear cells (PBMC) isolated from SLE or normal donor patients. Briefly, frozen PBMCs were thawed in a 37° C. water bath for 1 to 2 minutes, and then gently added to pre-warmed RPMI1640 medium with 10% FBS (total 10 ml). The cells were centrifuged at 2000 rpm for 5 minutes at room temperature. The cell pellet was washed with 5 ml of pre-warmed RPMI 1640 medium with 10% FBS three times, followed by a final D-PBS (no calcium, no magnesium buffer) wash. Human T cells were then purified by a Pan T Cell Isolation Kit (human) from Miltenyi Biotec, as described above.
The purity of isolated T cells routinely exceeded 94%. After purification, T cells were resuspended in RPMI1640 medium with 10% FBS and 1×10^5 cells/well in 100 ul total volume was loaded onto a 96-well plate, either left uncoated or precoated with anti-CD3 antibody (1 ug/ml) (OKT3; Biolegend). […]
For cell viability, an MTT (thiazolyl Blue tetrazolium Bromide, M2128, Sigma, St. Louis, Mo.) assay was employed. […] Spectrophotometric absorbance of the samples was assessed using a microplate reader at a wavelength of 595 nm. T cell numbers/proliferation was assessed by cell count using a hemocytometer. […] After mixing, 10 μl of the mixture was loaded onto the hemocytometer and the total average number of cells/well was calculated. […]

SLE-prone MRL/lpr mice = assay: SLE disease progression in MRL/lpr mice (skin, spleen, kidney, thymus, proteinuria, histology, body weight); format: in vivo, mouse
Description: Briefly, female MRL/MpJ-fas lpr (MRL/lpr), MRL/Mpj and C57BL/6J mice were purchased from the Jackson Laboratory (Bar Harbor, Me.). For experiments, mice within each group were ip injected with either vehicle (DMSO) or the SHP2 inhibitor (7.5 mg/kg/per day). Testing continued for a period of 6 weeks, starting at 11 weeks of age to 17 weeks. Body weight was measured daily and treatment dosage was adjusted accordingly. At the end of the treatment period, mice were sacrificed with CO2 exsanguination and SLE targeted organs were removed. For each mouse, spleen, kidney, and heart weight were calculated. In addition, total animal body weight and tibia length were measured. Peripheral blood/serum was also collected for use in the cytokine assays described below.
Harvested organs (kidney, spleen, and heart) to be used to assess morphometry and histochemistry were flushed with PBS, perfusion fixed in Bouin's reagent, and paraffin embedded. Sections (5 μm) were stained with Hematoxylin and Eosin (H&E), Periodic acid—Schiff stain (PAS), Masson-Trichrome, or reticulin staining at the Harvard Medical School Rodent Histopathology Core and scored using an unbiased approach, in which histology scores of 1 (normal) to 5 (most severe pathology) were designated to tissue sections which were only numerically labeled and in no particular order (by Dr. Roderick Bronson, director of the Rodent Histopathology Core, Harvard Medical School). Numerical sections were later decoded, marked for their designated score, and statistically analyzed. Images of the tissue sections were obtained and quantified on a Keyence BZ-9000 Microscope (Keyence Corporation, Itasca, Ill.).
To determine kidney function, urine was collected before mice were sacrificed. Albumin and creatinine in the urine were measured using colorimetric assays according to the manufacturer's instructions (Albuwell M; The creatinine companion, Exocell), as described below. The kidney function was calculated as ratio of albumin to creatinine levels.
Albumin and creatinine levels: For the albumin assay, collected mouse urine was diluted at 1:5200× and 50 μl was loaded onto an albumin precoated 96-well plate, followed by primary incubation, secondary incubation and colorimetric determination. For the creatinine assay, the urine was diluted 20× and loaded onto a 96-well plate, and picrate working solution and acid reagent were added sequentially according to protocol. Absorbance was assayed using a plate reader set at a wavelength of 495 nm.
To determine whether inhibition of SHP2 activity affected SLE disease progression, each of the SLE target tissues (i.e., skin, kidney, spleen) was tested in both treated and untreated SLE-prone mice. Particularly, tissues were tested as: WT treated with inhibitor, WT treated with DMSO (vehicle), MRL/mpJ treated with inhibitor, MRL/mpf treated with DMSO (vehicle), MRL/lpr treated with inhibitor, and MRL/lpr treated with DMSO (vehicle).

[2] = MRL/lpr mice, treatment for 6 weeks

## Cn1c(-c2cccc(NC(=O)C(=O)Nc3ccc(-c4ccsc4)cc3)c2)c(I)c2cc(C(=O)O)c(O)cc21 [11a-1]
[1]; human SLE T cell cultures
  T cell viability: no differences in viability
[1]; human SLE T cells, 48 hours, 10 μg/ml
  T cell proliferation in response to CD3: reduced T cell proliferation
[1]; human SLE T cells, CD3 antibody, 48 hours, 10 μg/ml
  secretion of IFNγ in response to T cell activation: significantly decreased the secretion of IFNγ activity
SLE-prone MRL/lpr mice; 7.5 mg/kg/day
  cytotoxic effects during the treatment period: no obvious cytotoxic effects
SLE-prone MRL/lpr mice; MRL/lpr mice
  SLE-related disease phenotype in the kidney (histology: glomerulonephritis, fibrosis, immune cell infiltration): prevented the development of this SLE-related disease phenotype in the kidney
  unbiased histopathological scoring of kidney: quantifiably prevented the development of SLE-related disease phenotype
SLE-prone MRL/lpr mice; [2]
  kidney size: normalized the kidney to a size
  splenomegaly (spleen size and weight): reduced splenomegaly
SLE-prone MRL/lpr mice; SLE kidneys
  PAS staining of kidney tissue: decreased inflammatory infiltration in the tissue, smaller glomeruli, decreased fibrosis, and decreased numbers of mesangial cells surrounding the glomerulus
SLE-prone MRL/lpr mice; SLE mice vs vehicle-treated
  proteinuria: significant reduction in proteinuria
SLE-prone MRL/lpr mice; SLE-prone mice
  thymus size: decreased thymus size
SLE-prone MRL/lpr mice; SLE-prone mice, 7.5 mg/kg/day
  skin lesions/inflammation: reduced the skin lesions/inflammation
SLE-prone MRL/lpr mice; mice, 7.5 mg/kg/day ip
  body weight during treatment period: no change in body weight
